Results from US20250289804A1, “SUBSTITUTED INDOLE COMPOUNDS AND METHODS OF USE THEREOF” (NOVARTIS PHARMA AG, priority 2021, published 2025).

Key:
C3G patients = conditions: after 12 weeks of treatment; cited from earlier work
human C3bBb = human C3bBb (Homo sapiens (Human), UniProt P00751); assay: Human C3bBb enzyme assay (C3a generation from C3, ELISA); assay type: biochemical; conditions: starred values: assay conducted with 1 nM C3b:Bb enzyme; read-out: Human C3b:Bb IC50 Avg
Procedure, shortened: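 C3bBb was preformed from human C3b, CFB and CFD at 1 μM each (30 min, RT) in PBS pH 7.4 with 100 μM NiCl2 and 0.05% CHAPS. Then 3 nM complex with 1 μM human C3 was incubated with compound for 1 h at RT. C3a was quantified by ELISA against a standard curve, and IC50 came from a 10-point 4-parameter fit.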

[1] = system: MAC formation in normal human serum; assay: Human serum MAC formation assay (zymosan-coated plates, 50% normal human serum); conditions: 50% normal human serum with EGTA, 37° C. 30 minutes
Procedure, shortened: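 Compounds preincubated 15 min at RT with 50% normal human serum in gelatin buffer plus 20 mM EGTA, then complement activated 30 min at 37 °C on zymosan-coated plates. C9 neoepitope ELISA, fluorogenic readout. Percent inhibition vs EDTA-serum baseline and EGTA-serum maximum; IC50 from 4-parameter fit of 10-point curves.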

Chain of human C3bBb (P00751 260-764): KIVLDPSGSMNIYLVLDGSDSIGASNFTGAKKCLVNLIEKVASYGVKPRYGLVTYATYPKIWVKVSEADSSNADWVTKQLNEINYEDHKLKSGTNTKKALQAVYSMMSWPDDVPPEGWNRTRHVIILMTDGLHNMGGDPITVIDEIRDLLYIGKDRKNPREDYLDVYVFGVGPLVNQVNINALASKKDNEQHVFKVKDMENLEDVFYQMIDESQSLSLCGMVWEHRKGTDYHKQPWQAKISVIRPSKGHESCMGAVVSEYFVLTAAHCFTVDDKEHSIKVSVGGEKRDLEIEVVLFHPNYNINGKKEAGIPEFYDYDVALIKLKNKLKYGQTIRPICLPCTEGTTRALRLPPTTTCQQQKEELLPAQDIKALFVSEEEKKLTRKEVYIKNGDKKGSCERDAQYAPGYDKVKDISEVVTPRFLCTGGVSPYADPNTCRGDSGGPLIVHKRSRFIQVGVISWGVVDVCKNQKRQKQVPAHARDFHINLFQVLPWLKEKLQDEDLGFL
Chain of human C3bBb (P01024 23-667 partner): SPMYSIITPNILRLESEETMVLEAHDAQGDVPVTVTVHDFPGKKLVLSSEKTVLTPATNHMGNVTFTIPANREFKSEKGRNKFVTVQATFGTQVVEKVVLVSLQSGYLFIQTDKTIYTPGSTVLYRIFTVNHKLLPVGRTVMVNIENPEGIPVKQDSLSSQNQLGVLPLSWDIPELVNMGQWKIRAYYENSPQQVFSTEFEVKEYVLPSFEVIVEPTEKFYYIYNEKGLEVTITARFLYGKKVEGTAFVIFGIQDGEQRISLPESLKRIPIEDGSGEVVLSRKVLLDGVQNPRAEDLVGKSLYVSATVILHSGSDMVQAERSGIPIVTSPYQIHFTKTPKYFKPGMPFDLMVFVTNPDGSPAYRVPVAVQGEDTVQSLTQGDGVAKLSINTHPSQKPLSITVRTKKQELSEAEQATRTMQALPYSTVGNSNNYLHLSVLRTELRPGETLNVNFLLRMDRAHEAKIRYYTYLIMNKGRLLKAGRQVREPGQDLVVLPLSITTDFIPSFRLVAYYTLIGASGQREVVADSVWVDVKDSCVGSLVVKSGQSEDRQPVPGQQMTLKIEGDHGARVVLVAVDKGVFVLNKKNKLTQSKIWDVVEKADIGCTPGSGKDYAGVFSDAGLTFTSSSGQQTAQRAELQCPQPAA
Chain of human C3bBb (P01024 749-1663 partner): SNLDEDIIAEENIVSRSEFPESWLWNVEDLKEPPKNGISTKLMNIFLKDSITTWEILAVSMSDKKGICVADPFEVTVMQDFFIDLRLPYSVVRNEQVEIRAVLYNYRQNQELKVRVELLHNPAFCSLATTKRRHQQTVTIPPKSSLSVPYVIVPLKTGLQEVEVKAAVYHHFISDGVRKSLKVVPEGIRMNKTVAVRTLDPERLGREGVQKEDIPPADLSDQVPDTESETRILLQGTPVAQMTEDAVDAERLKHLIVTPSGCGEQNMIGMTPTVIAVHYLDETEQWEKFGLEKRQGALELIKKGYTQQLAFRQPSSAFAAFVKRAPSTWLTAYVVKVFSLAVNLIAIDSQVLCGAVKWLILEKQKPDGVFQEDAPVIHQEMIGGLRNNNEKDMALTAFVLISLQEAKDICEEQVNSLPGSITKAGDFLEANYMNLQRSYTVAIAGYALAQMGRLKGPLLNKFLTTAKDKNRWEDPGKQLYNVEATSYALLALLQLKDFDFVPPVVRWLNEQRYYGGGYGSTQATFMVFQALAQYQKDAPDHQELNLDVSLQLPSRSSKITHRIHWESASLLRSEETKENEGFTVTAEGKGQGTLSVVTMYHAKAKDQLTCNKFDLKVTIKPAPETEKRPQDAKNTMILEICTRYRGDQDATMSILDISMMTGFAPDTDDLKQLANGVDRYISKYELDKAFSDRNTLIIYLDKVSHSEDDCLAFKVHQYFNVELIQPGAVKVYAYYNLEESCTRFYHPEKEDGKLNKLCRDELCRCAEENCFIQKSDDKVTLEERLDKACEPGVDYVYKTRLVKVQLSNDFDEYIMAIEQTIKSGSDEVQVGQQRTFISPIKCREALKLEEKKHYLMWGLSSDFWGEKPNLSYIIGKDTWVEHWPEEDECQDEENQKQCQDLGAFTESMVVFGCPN

IC50 (human C3bBb) | Structure (SMILES) | efficacy (proteinuria) (C3G patients) | IC50 [1]
– | CCO[C@H]1CCN(Cc2c(OC)cc(C)c3[nH]ccc23)[C@H](c2ccc(C(=O)O)cc2)C1 [iptacopan] | reduced proteinuria | –
25 to 50 nM | Cc1cc(C2CC2)c(CN2CC[C@H](N3CC4(CC4)C3)C[C@H]2c2ccc(C(=O)O)cc2)c2cc[nH]c12 [Example 78, 4-((2S,4S)-1-((5-cyclopropyl-7-methyl-1H-indol-4-yl)methyl)-4-(5-azaspiro[2.3]hexan-5-yl)piperidin-2-yl)benzoic acid] | – | 100 to 200 nM
